For two compounds, pest or weed control and melting point results are on record in patent publication US20110136666A1, “CHEMICAL COMPOUNDS” (SYNGENTA CROP PROTECTION, INC., priority 2008, published 2011).

Each structure is given as a SMILES string.

The first data set deals with Setaria faberi (SETFA). The experiment in a line: Pre-emergence biological efficacy, glasshouse pot test. The conditions noted are these: 312 h, 1000 g/ha, after 13 days, 100=total damage, 0=no damage, read-out: Percentage damage caused to weed species SETFA. In kind it is in vivo. In outline: (§1)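 Pots sown with weed seeds, sprayed 1 day after sowing with test compound in acetone/water (50:50) plus 0.5% Tween 20 at 250 or 1000 g/ha. Plants grown in glasshouse at 24/16° C day/night, 14 h light, 65% humidity, watered twice daily. Damage scored visually after 13 days (0 = none, 100 = total).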
Regarding `Nc1nc(-c2ccccn2)nc(C(=O)O)c1Cl` [Compound 1-149, 4-amino-5-chloro-2-pyridin-2-ylpyrimidine-6-carboxylic acid], the pest or weed control at 1000 g/ha came to 0%.
For `COC(=O)c1nc(-c2cc(Cl)nc(Cl)c2)nc(N)c1Cl` [Compound 2-179, 4-Amino-5-chloro-2-(2,6-dichloropyridin-4-yl)-6-methoxycarbonyl pyrimidine], the pest or weed control at 1000 g/ha worked out at 0%.

The subject of a further data set is Echinochloa crus-galli (ECHCG). The data set is described as above. In kind it is in vivo. The note with it: 312 h, 1000 g/ha, after 13 days, 100=total damage, 0=no damage, read-out: Percentage damage caused to weed species ECHCG. The method, boiled down: as §1
Regarding `Nc1nc(-c2ccccn2)nc(C(=O)O)c1Cl` [Compound 1-149, 4-amino-5-chloro-2-pyridin-2-ylpyrimidine-6-carboxylic acid], the pest or weed control at 1000 g/ha turned out to be 0%.
With `COC(=O)c1nc(-c2cc(Cl)nc(Cl)c2)nc(N)c1Cl` [Compound 2-179, 4-Amino-5-chloro-2-(2,6-dichloropyridin-4-yl)-6-methoxycarbonyl pyrimidine], the pest or weed control at 1000 g/ha stood at 0%.

Another data set has as its system Alopecurus myosuroides (ALOMY). The data set is described as above. The data set is classed as in vivo. The conditions noted are these: 312 h, 1000 g/ha, after 13 days, 100=total damage, 0=no damage, read-out: Percentage damage caused to weed species ALOMY. In outline:
as §1
`Nc1nc(-c2ccccn2)nc(C(=O)O)c1Cl` [Compound 1-149, 4-amino-5-chloro-2-pyridin-2-ylpyrimidine-6-carboxylic acid]: the pest or weed control at 1000 g/ha amounted to 0%.
Still for that read-out and setting: the same measure for `COC(=O)c1nc(-c2cc(Cl)nc(Cl)c2)nc(N)c1Cl` [Compound 2-179, 4-Amino-5-chloro-2-(2,6-dichloropyridin-4-yl)-6-methoxycarbonyl pyrimidine]: 0%.

For another data set, the system named is Amaranthus retroflexus (AMARE). The data set is described as above. The data set is classed as in vivo. The note with it: 312 h, 1000 g/ha, after 13 days, 100=total damage, 0=no damage, read-out: Percentage damage caused to weed species AMARE. In outline: as §1
`Nc1nc(-c2ccccn2)nc(C(=O)O)c1Cl` [Compound 1-149, 4-amino-5-chloro-2-pyridin-2-ylpyrimidine-6-carboxylic acid]: the pest or weed control at 1000 g/ha is 0%.
Same read-out and setting: then `COC(=O)c1nc(-c2cc(Cl)nc(Cl)c2)nc(N)c1Cl` [Compound 2-179, 4-Amino-5-chloro-2-(2,6-dichloropyridin-4-yl)-6-methoxycarbonyl pyrimidine], with 0%.

The subject of a further data set is Ipomea hederaceae (IPOHE). The description is as above. The data set is classed as in vivo. The note with it: Ipomoea hederacea, 312 h, 1000 g/ha, after 13 days, 100=total damage, 0=no damage, read-out: Percentage damage caused to weed species IPOHE. The method, boiled down: as §1
On to `Nc1nc(-c2ccccn2)nc(C(=O)O)c1Cl` [Compound 1-149, 4-amino-5-chloro-2-pyridin-2-ylpyrimidine-6-carboxylic acid], for which the pest or weed control at 1000 g/ha is 0%.
The same measure, in the same setting: the same measure for `COC(=O)c1nc(-c2cc(Cl)nc(Cl)c2)nc(N)c1Cl` [Compound 2-179, 4-Amino-5-chloro-2-(2,6-dichloropyridin-4-yl)-6-methoxycarbonyl pyrimidine]: 0%.

A further data set has as its system Solanum nigrum (SOLNI). Described as above. The note with it: 312 h, 1000 g/ha, after 13 days, 100=total damage, 0=no damage, read-out: Percentage damage caused to weed species SOLNI. The data set is classed as in vivo. In outline: as §1
With `Nc1nc(-c2ccccn2)nc(C(=O)O)c1Cl` [Compound 1-149, 4-amino-5-chloro-2-pyridin-2-ylpyrimidine-6-carboxylic acid], the pest or weed control at 1000 g/ha was 0%.
Still for that read-out and setting: the same measure for `COC(=O)c1nc(-c2cc(Cl)nc(Cl)c2)nc(N)c1Cl` [Compound 2-179, 4-Amino-5-chloro-2-(2,6-dichloropyridin-4-yl)-6-methoxycarbonyl pyrimidine]: 0%.

System in another data set: not given
Test: not given
Conditions: not given
As a reminder, the melting point is the temperature of the solid-liquid transition. Take `Nc1nc(-c2ccccn2)nc(C(=O)O)c1Cl` [Compound 1-149, 4-amino-5-chloro-2-pyridin-2-ylpyrimidine-6-carboxylic acid]: the melting point is 183 °C (dec.).

Another data set deals with Setaria faberi (SETFA). As to the kind of experiment: Post-emergence biological efficacy, glasshouse pot test. The data set is classed as in vivo. The conditions noted are these: 312 h, 1000 g/ha, after 13 days, 100=total damage, 0=no damage, read-out: Percentage damage caused to weed species SETFA. The method, boiled down:
(§2)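 Species sown in soil and grown 8 days in glasshouse (24/16 °C day/night, 14 h light, 65% humidity), then sprayed with compound in acetone/water (50:50) with 0.5% Tween 20 at 250 or 1000 g/ha. Damage scored visually after 13 days (0 = none, 100 = total).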
For `Nc1nc(-c2ccccn2)nc(C(=O)O)c1Cl` [Compound 1-149, 4-amino-5-chloro-2-pyridin-2-ylpyrimidine-6-carboxylic acid], the pest or weed control at 1000 g/ha stood at 0%.
Regarding `COC(=O)c1nc(-c2cc(Cl)nc(Cl)c2)nc(N)c1Cl` [Compound 2-179, 4-Amino-5-chloro-2-(2,6-dichloropyridin-4-yl)-6-methoxycarbonyl pyrimidine], the pest or weed control at 1000 g/ha is 10%.

The test system of the next data set is Echinochloa crus-galli (ECHCG). Described as above. The data set is classed as in vivo. The note with it: 312 h, 1000 g/ha, after 13 days, 100=total damage, 0=no damage, read-out: Percentage damage caused to weed species ECHCG. The method, boiled down: as §2
On to `Nc1nc(-c2ccccn2)nc(C(=O)O)c1Cl` [Compound 1-149, 4-amino-5-chloro-2-pyridin-2-ylpyrimidine-6-carboxylic acid], for which the pest or weed control at 1000 g/ha turned out to be 0%.
On the same count and under the same terms, then `COC(=O)c1nc(-c2cc(Cl)nc(Cl)c2)nc(N)c1Cl` [Compound 2-179, 4-Amino-5-chloro-2-(2,6-dichloropyridin-4-yl)-6-methoxycarbonyl pyrimidine], with 0%.

The subject of the next data set is Alopecurus myosuroides (ALOMY). The description is as above. In kind it is in vivo. The conditions noted are these: 312 h, 1000 g/ha, after 13 days, 100=total damage, 0=no damage, read-out: Percentage damage caused to weed species ALOMY. In outline:
as §2
In the case of `Nc1nc(-c2ccccn2)nc(C(=O)O)c1Cl` [Compound 1-149, 4-amino-5-chloro-2-pyridin-2-ylpyrimidine-6-carboxylic acid], the pest or weed control at 1000 g/ha is 0%.
`COC(=O)c1nc(-c2cc(Cl)nc(Cl)c2)nc(N)c1Cl` [Compound 2-179, 4-Amino-5-chloro-2-(2,6-dichloropyridin-4-yl)-6-methoxycarbonyl pyrimidine]: the pest or weed control at 1000 g/ha worked out at 0%.

Another data set concerns Amaranthus retroflexus (AMARE). Described as above. The data set is classed as in vivo. The note with it: 312 h, 1000 g/ha, after 13 days, 100=total damage, 0=no damage, read-out: Percentage damage caused to weed species AMARE. In outline: as §2
On to `Nc1nc(-c2ccccn2)nc(C(=O)O)c1Cl` [Compound 1-149, 4-amino-5-chloro-2-pyridin-2-ylpyrimidine-6-carboxylic acid], for which the pest or weed control at 1000 g/ha stood at 0%.
As for `COC(=O)c1nc(-c2cc(Cl)nc(Cl)c2)nc(N)c1Cl` [Compound 2-179, 4-Amino-5-chloro-2-(2,6-dichloropyridin-4-yl)-6-methoxycarbonyl pyrimidine], the pest or weed control at 1000 g/ha came to 30%.

For the next data set, the system named is Ipomea hederaceae (IPOHE). The data set is described as above. In kind it is in vivo. The conditions noted are these: Ipomoea hederacea, 312 h, 1000 g/ha, after 13 days, 100=total damage, 0=no damage, read-out: Percentage damage caused to weed species IPONE. The method, boiled down: as §2
For `Nc1nc(-c2ccccn2)nc(C(=O)O)c1Cl` [Compound 1-149, 4-amino-5-chloro-2-pyridin-2-ylpyrimidine-6-carboxylic acid], the pest or weed control at 1000 g/ha worked out at 0%.
On the same count and under the same terms, the same measure for `COC(=O)c1nc(-c2cc(Cl)nc(Cl)c2)nc(N)c1Cl` [Compound 2-179, 4-Amino-5-chloro-2-(2,6-dichloropyridin-4-yl)-6-methoxycarbonyl pyrimidine]: 40%.

For a further data set, the system named is Solanum nigrum (SOLNI). The description is as above. In kind it is in vivo. The conditions noted are these: 312 h, 1000 g/ha, after 13 days, 100=total damage, 0=no damage, read-out: Percentage damage caused to weed species SOLNI. The method, boiled down: as §2
In the case of `Nc1nc(-c2ccccn2)nc(C(=O)O)c1Cl` [Compound 1-149, 4-amino-5-chloro-2-pyridin-2-ylpyrimidine-6-carboxylic acid], the pest or weed control at 1000 g/ha was determined as 0%.
Still for that read-out and setting: then `COC(=O)c1nc(-c2cc(Cl)nc(Cl)c2)nc(N)c1Cl` [Compound 2-179, 4-Amino-5-chloro-2-(2,6-dichloropyridin-4-yl)-6-methoxycarbonyl pyrimidine], with 30%.
